In PMC10892041, “Vanadium Complexes with Thioanilide Derivatives of Amino Acids: Inhibition of Human Phosphatases and Specificity in Various Cell Models of Metabolic Disturbances” (Pharmaceuticals, 2024):
Read-outs that look alike come from different tables or passages of the source.

Experiments:
PTP1B = biological target: T1, PTP1B (Homo sapiens, UniProt P18031); assay: Inhibition of human recombinant tyrosine phosphatase PTP1B (DiFMUP fluorescence); format: biochemical; settings: for Inhibition of PTP1B, percentage of inhibition of the control: 1 µM, control solvent only, SD did not exceed 6%; for Log IC50 ± SD PTP1B: logarithm of IC50
T1 construct: purchased Sigma-Aldrich
T1 sequence (P18031 1-435): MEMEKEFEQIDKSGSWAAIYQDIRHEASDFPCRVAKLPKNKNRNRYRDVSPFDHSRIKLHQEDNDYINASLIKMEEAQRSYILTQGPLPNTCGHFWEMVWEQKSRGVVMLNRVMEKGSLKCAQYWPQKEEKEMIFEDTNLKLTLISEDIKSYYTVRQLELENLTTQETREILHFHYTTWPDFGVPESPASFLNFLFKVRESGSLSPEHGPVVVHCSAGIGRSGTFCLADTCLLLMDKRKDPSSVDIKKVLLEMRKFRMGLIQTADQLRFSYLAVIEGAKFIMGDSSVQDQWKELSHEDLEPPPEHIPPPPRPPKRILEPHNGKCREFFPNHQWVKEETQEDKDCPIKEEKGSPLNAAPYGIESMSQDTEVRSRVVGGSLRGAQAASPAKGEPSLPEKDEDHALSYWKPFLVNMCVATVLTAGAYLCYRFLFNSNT
Protocol: (§1) To determine the ability of the tested compounds for inhibition tyrosine phosphatases, human recombinant proteins were used (Sigma-Aldrich). The reactions were performed in black opaque 384-well microplates (PerkinElmer, Waltham, MA, USA). An equal volume of phosphatase solution in a reaction buffer (25 mM of 3-(N-morpholino)propanesulfonic acid (MOPS), 50 mM NaCl, 1 mM dithiothreitol (DTT), and 0.05% Tween-20 (pH 7.0)) was added to the solution of the tested compound on microplate. These solutions were dispensed using an automated injector. The following final concentrations of the tested phosphatases were used: PTP1B 50 ng/mL, SHP1 400 ng/mL, SHP2 50 ng/mL, LAR 5 ng/mL, and PTPRA 100 ng/mL. After 10 min, a solution of phosphate 6,8-difluoro-4-methyl (DiFMUP; Thermo Fisher Scientific) was added until its final concentration was 0.1 mM. Samples were incubated for 20 miN at 23 °C, and then the measurements of fluorescence intensity (excitation 355 and emission […]) were performed on a multifunctional plate reader POLARstar Omega (BMG Labtech, Ortenberg, Germany). Assays were performed in triplicate. For the screening assays, the final concentration of the tested compounds was 1 µM. The results were expressed as percent inhibition of untreated control (enzyme with vehicle only) for the screening tests. […] IC50 were calculated using GraphPad Prism version 6.0 software (GraphPad Software, Boston, MA, USA).

LAR = biological target: T2, LAR (Homo sapiens, UniProt P10586); assay: Inhibition of human recombinant tyrosine phosphatase LAR (DiFMUP fluorescence); format: biochemical
T2 sequence (P10586 1352-1607 limits assumed): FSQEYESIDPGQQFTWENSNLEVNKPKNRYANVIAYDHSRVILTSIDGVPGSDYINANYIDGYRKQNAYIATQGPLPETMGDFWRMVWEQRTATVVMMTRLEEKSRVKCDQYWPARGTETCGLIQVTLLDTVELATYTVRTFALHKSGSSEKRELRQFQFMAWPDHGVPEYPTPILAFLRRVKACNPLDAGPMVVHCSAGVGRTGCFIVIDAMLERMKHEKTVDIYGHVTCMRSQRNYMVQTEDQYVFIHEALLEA
Protocol: as §1

SHP1 = biological target: T3, SHP1 (Homo sapiens, UniProt P29350); assay: Inhibition of human recombinant tyrosine phosphatase SHP1 (DiFMUP fluorescence); format: biochemical; settings: for Log IC50 ± SD SHP1: logarithm of IC50
T3 construct: purchased Sigma-Aldrich
Protocol: as §1

SHP2 = biological target: T4, SHP2 (Homo sapiens, UniProt Q06124); assay: Inhibition of human recombinant tyrosine phosphatase SHP2 (DiFMUP fluorescence); format: biochemical
T4 construct: purchased Sigma-Aldrich
T4 sequence (Q06124 1-593): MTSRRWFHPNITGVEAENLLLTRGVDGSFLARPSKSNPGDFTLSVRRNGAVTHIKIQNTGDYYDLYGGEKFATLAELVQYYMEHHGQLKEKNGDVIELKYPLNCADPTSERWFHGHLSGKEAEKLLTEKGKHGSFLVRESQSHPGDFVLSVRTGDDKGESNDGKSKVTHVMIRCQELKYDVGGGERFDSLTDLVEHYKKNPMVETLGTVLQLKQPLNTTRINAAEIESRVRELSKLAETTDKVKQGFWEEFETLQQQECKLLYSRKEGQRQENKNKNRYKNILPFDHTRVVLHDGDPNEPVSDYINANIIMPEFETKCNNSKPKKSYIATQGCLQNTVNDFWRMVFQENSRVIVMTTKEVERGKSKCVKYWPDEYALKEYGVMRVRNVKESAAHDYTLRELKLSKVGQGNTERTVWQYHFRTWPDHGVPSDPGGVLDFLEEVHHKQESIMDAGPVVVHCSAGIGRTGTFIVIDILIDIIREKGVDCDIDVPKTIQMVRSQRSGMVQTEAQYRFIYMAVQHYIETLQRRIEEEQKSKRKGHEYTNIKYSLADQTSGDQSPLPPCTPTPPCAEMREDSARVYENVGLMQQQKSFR
Protocol: as §1

CDC25A = biological target: T5, CDC25A (Homo sapiens, UniProt P30304); assay: Inhibition of human recombinant non-tyrosine phosphatase CDC25A (3-O-methylfluorescein phosphate); format: biochemical
T5 construct: purchased Sigma-Aldrich
T5 sequence (P30304 1-524): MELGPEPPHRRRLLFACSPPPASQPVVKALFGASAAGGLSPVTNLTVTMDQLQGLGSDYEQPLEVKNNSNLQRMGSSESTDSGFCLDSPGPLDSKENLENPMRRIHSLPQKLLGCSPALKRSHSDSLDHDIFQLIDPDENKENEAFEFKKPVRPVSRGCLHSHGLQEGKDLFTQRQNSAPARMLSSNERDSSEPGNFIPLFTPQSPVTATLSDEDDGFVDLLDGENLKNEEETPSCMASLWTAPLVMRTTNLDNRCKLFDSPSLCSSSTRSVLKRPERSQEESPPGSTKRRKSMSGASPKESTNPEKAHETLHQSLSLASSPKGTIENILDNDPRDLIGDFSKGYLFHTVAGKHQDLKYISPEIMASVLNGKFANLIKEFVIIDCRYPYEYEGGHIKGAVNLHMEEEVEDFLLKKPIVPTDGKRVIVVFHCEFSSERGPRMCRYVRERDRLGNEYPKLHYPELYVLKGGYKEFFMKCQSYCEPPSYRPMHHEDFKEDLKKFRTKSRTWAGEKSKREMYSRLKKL
Protocol: (§2) For the inhibition assay of non-tyrosine phosphatases, human recombinant proteins were used (Sigma-Aldrich). The reactions were performed in black opaque 384-well microplates (PerkinElmer). To the solution of the tested complexes, an equal volume of a test solution of phosphatase was added. CDC25A were diluted in reaction buffer to the final concentration of 400 ng/mL as for tyrosine phosphatases (described in the section above), and PPA2 (final 0.5 U/mL) was diluted in 50 mM Tris-HCl, 0.05% Tween-20, and 125 µg/mL protease-free bovine serum albumin (pH 7.0). These solutions were dispensed using an automated injector. After 10 min, a solution of phosphate 6,8-difluoro-4-methyl (DiFMUP; Thermo Fisher Scientific) was added for the PPA2 sample until the final concentration 0.1 mM. For CDC25A samples, 3-O-methylfluorescein phosphate for the final concentration of 0.2 mM was added. Samples were incubated for 180 min at 23 °C, and then the measurements of fluorescence intensity (excitation 355 and emission 560 nm) were performed on a multifunctional plate reader POLARstar Omega (BMG Labtech). Assays were performed in triplicate. The results were expressed as percent of inhibition of untreated control (enzyme with vehicle solvent only).

PP2A = PP2A (Homo sapiens, UniProt P67775); assay: Inhibition of human recombinant non-tyrosine phosphatase PP2A (DiFMUP); format: biochemical
Protocol: as §2

myocytes C2C12 = assay: Viability of myocytes C2C12 after 24 h incubation (resazurin-based reagent); settings: 50 µM
Protocol: Simultaneously with glucose consumption tests, the viability of myocytes C2C12 was examined due to their prolonged 24 h incubation with vanadium complexes.
Prolonged incubation of the cells with vanadium complexes, as was the case during the study of the effect on glucose consumption, more closely corresponds to the actual conditions of clinical use, also allowing for the identification of possible cytotoxic effects. […] A Resazurin-based reagent is reduced proportionally to the metabolic activity of cells as a result of the transference of electrons from NADPH+H^+, the amount of which strictly depends on glucose metabolism.

[1] = 1 µM, control solvent only, SD did not exceed 6%

Sequence of PP2A (P67775 whole entry): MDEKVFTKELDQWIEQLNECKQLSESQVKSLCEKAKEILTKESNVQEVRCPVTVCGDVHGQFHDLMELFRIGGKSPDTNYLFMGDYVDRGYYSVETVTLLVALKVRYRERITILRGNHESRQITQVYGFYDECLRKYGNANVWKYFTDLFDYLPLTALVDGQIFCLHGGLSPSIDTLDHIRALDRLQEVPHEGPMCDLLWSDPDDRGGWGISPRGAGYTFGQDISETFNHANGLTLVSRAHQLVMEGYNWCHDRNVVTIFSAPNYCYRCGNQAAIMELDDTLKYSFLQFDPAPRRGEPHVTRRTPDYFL
T3 sequence (P29350 whole entry): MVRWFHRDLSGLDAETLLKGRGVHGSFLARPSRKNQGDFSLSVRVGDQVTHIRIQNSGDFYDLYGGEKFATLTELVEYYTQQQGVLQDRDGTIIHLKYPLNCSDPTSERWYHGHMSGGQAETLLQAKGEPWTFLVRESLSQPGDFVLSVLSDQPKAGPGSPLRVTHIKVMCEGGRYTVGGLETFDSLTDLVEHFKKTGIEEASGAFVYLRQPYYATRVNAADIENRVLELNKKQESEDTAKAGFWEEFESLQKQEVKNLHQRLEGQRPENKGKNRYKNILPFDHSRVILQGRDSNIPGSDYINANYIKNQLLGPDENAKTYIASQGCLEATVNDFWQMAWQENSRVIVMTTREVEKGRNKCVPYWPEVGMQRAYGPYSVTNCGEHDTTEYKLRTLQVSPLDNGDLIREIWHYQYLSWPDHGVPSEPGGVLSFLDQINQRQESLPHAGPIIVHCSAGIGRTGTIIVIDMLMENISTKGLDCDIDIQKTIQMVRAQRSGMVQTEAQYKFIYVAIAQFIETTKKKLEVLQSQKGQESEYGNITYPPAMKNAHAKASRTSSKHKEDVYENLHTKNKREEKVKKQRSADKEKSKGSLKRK

Row | Inhibition of PTP1B, percentage of inhibition of the control (PTP1B) [%] | Inhibition of LAR, percentage of inhibition of the control (LAR; [1]) [%] | Inhibition of SHP1, percentage of inhibition of the control (SHP1; [1]) [%] | Inhibition of SHP2, percentage of inhibition of the control (SHP2; [1]) [%] | Log IC50 ± SD PTP1B (PTP1B) | IC50 (PTP1B; read-out: IC50 PTP1B) [nM] | IC50 (LAR) [nM] | Log IC50 ± SD SHP1 (SHP1) | Inhibition of CDC25A, percentage inhibition of control ± SD (CDC25A; 1 µM) [%] | Inhibition of CDC25A, percentage inhibition of control ± SD (CDC25A; 10 µM) [%] | Inhibition of PP2A, percentage inhibition of control ± SD (PP2A; 1 µM) [%] | Inhibition of PP2A, percentage inhibition of control ± SD (PP2A; 10 µM) [%] | Compound | other results
1 | 70 | 56 | 80 | 83 |  |  |  |  |  |  |  |  | CCC(C)C(N=C(C)CC(=S)Nc1ccccc1)C(=O)[O][V](=[O])([Cl])[Cl] (racemic) [VC109, [VOCl2(L5)]·3HCl] | 
2 |  |  |  |  |  |  |  |  |  |  |  |  | Cc1ccc(C(=O)Nc2ccc(S(=O)(=O)O)c3cc(S(=O)(=O)O)cc(S(=O)(=O)O)c23)cc1NC(=O)c1cccc(NC(=O)Nc2cccc(C(=O)Nc3cc(C(=O)Nc4ccc(S(=O)(=O)O)c5cc(S(=O)(=O)O)cc(S(=O)(=O)O)c45)ccc3C)c2)c1 [Suramin, reference compound] | inhibition at 1 µM (PTP1B; read-out: Inhibition of PTP1B, percentage of inhibition of the control): 7%; inhibition at 1 µM (LAR; 1 µM, control solvent only, SD did not exceed 6%, read-out: Inhibition of LAR, percentage of inhibition of the control): 9%; inhibition at 1 µM (SHP1; 1 µM, control solvent only, SD did not exceed 6%, read-out: Inhibition of SHP1, percentage of inhibition of the control): 17%; inhibition at 1 µM (SHP2; 1 µM, control solvent only, SD did not exceed 6%, read-out: Inhibition of SHP2, percentage of inhibition of the control): 10%
3 | 34 | 37 | 62 | 66 |  |  |  |  |  |  |  |  | O.[O]=[V]1[O]C(c2ccc(O)cc2)=NN=Cc2cc(Br)ccc2[O]1.c1cnc2c(c1)ccc1cccnc12 [VC046, [VO(L9)(phen)]⋅2H2O] | 
4 | 36 | 35 | 62 | 64 |  |  |  |  |  |  |  |  | CC(C)(C)c1ccc(C2=NN=Cc3cc(Br)ccc3[O][V](=[O])[O]2)cc1.O.c1cnc2c(c1)ccc1cccnc12 [VC048, [VO(L10)(phen)]⋅0.5H2O] | 
5 | 25 | 19 | 53 | 57 | −5.37 ± 0.03 | 4260 | 1710 | −6.18 ± 0.03 | 12 ± 8 | 38 ± 1 | 24 ± 3 | 51 ± 4 | [O]=[V]1[O]C(c2ccc(Cl)cc2)=NN=Cc2cc(Br)ccc2[O]1.c1cnc2c(c1)ccc1cccnc12 [VC050, [VO(L11)(phen)]] | IC50 (SHP1): 657 nM; IC50 (SHP2): 273 nM
6 | 78 | 67 | 84 | 87 | −6.85 ± 0.01 | 141 | 112 | −7.56 ± 0.02 | 51 ± 2 | 65 ± 3 | 41 ± 15 | 75 ± 7 | CC(CC(=S)Nc1ccccc1)=NC(Cc1c[nH]c2ccccc12)C(=O)[O][V](=[O])([Cl])[Cl] (stereo not shown) [VC054, [VOCl2(L1)]·1.5Et2O ·6.5HCl] | IC50 (PTP1B; read-out: IC50 for PTP1B): 140 nM; Cell viability of myocytes C2C12, % of the control (myocytes C2C12): 84 ± 8%
7 | 33 | 28 | 40 | 47 | −7.24 ± 0.06 | 58 | 38 | −7.59 ± 0.13 | 34 ± 1 | 51 ± 1 | 18 ± 2 | 53 ± 3 | ammonium heptamolybdate [(NH4)6Mo7O24, reference compound] | Log IC50 ± SD LAR (LAR; logarithm of IC50): −7.42 ± 0.04; IC50 (SHP1): 26 nM; IC50 (SHP2): 26 nM; Log IC50 ± SD SHP2 (SHP2; logarithm of IC50): −7.58 ± 0.04

Row | Compound | Inhibition of PTP1B, percentage of inhibition of the control (PTP1B) [%] | Inhibition of LAR, percentage of inhibition of the control (LAR; [1]) [%] | Inhibition of SHP1, percentage of inhibition of the control (SHP1; [1]) [%] | Inhibition of SHP2, percentage of inhibition of the control (SHP2; [1]) [%] | Log IC50 ± SD PTP1B (PTP1B) | IC50 (PTP1B; read-out: IC50 PTP1B) [nM] | IC50 (LAR) [nM] | Log IC50 ± SD SHP1 (SHP1) | Inhibition of CDC25A, percentage inhibition of control ± SD (CDC25A; 1 µM) [%] | Inhibition of CDC25A, percentage inhibition of control ± SD (CDC25A; 10 µM) [%] | Inhibition of PP2A, percentage inhibition of control ± SD (PP2A; 1 µM) [%] | Inhibition of PP2A, percentage inhibition of control ± SD (PP2A; 10 µM) [%] | other results
8 | C1CCOC1.CSCCC1C(=O)[O][V](=[O])([Cl])([Cl])[N]1C(C)=CC(=S)Nc1ccccc1.Cl (stereo not shown) [VC073, [VOCl2(L4)]·1.5THF·3HCl] | 74 | 63 | 82 | 86 |  |  |  |  |  |  |  |  | 
